Measured values published in patent US5071850A, “2,3-dihydro-3-arylalkylaminoalkyl-4H-1,3-benzoxazin-4-one derivatives, their preparation and their application as medicinal products which are useful in therapy” (Pierre Fabre Medicament, priority 1988, dated 1991).
Structures can show the parent of a compound that is named as a salt. Values belong to the molecule of their own block, whether it stands above or below them.

Key:
[1] = Solubility in water; type: physicochemical
[2] = tested on: Left atrium; experiment: Inotropic effect on isolated electrically stimulated left atrium; design: species or system guineapig; details: Cavia porcellus; 1 ug/ml; electrically stimulated at fixed rhythm; percentage change
Method: (§1) c) Finally, the chronotropic and inotropic activities were measured on isolated guineapig atria placed in isolated organ cells. The organs are then connected to force gauges. The right atrium, beating in a spontaneous rhythm, enables the negative chronotropic effects of the products to be assessed. As regards the left atria, these are electrically stimulated at a fixed rhythm so as to evaluate actions on the inotropic effect. The percentage changes are recorded in Table V for the compounds A, B, G and J, by way of non-limiting examples.

[3] = tested on: rats anesthetized with pentobarbital sodium; experiment: Bradycardic effect and intracardiac conduction times (ECG, arterial pressure) in pentobarbital-anesthetized rats; type: in vivo; details: 1 mg/kg iv; for % ABP (mean arterial blood pressure) / % HR (heart rate): % change at peak of action; for % modification of the ECG intervals: PQ (atrioventricular conduction time) / % modification of the ECG intervals: QRS (intraventricular conduction time) / % modification of the ECG intervals: QTS / % modification of the ECG intervals: TP (electrocardiac diastole): at peak of action
Method: b) The bradycardic effect and the analysis of the intracardiac conduction times were studied on rats anesthetized with pentobarbital sodium (40 mg/kg ip) and left in spontaneous ventilation. The electrocardiogram is recorded simultaneously in the standard leads OI, OII and OIII; the arterial blood pressure is measured on a femoral artery. The percentage changes are considered at the peak of action. The results relating to the compounds A, B, J, G and N are given in Table III, by way of non-limiting example.

[4] = tested on: Right atrium; experiment: Chronotropic effect on isolated spontaneously beating right atrium; design: species or system guineapig; details: Cavia porcellus; 1 ug/ml; spontaneous rhythm; percentage change
Method: as §1

[5] = tested on: anesthetized rats; experiment: Coronary ligation in anesthetized rats (antiarrhythmic activity and heart rate); type: in vivo; details: 2.5 mg/kg iv; for % fall in heart rate after 1 min: 1 min after injection; for % fall in heart rate after 1 min / % fall in heart rate after 10 min: % change relative to controls; for % fall in heart rate after 10 min: 10 min after injection; for % fall in arrhythmias: coronary ligation
From the text: a) The technique of coronary ligation in anesthetized rats according to Clark et al. (J. Pharm. […] SC denotes the percentage reduction in disorders of rhythm induced by these compounds, n denotes the number of animals.

[6] = tested on: conscious dogs; experiment: Bradycardic effect in conscious dogs with hydralazine-raised heart rate (Kobinger and Lillie); type: in vivo; details: hydralazine 1 mg/kg iv, conscious dogs
Method: When the latter has stabilized, the test products are injected intravenously.

Structure (SMILES): COc1ccc(CCN(C)CCCN2C(=O)c3cc(OC)c(OC)cc3OC2C)cc1OC.Cl (centres unmarked) [Compound M, 2,3-Dihydro-6,7-dimethoxy-3-{3-[(methyl)(3,4-dimethoxyphenethyl)amino]propyl}-2-methyl-4H-1,3-benzoxazin-4-one hydrochloride]
- solubility [1]: 100 mg/mL

Structure (SMILES): COc1ccc(CCNCCCN2COc3cc(OC)c(OC)cc3C2=O)cc1OC.Cl [Compound P, 2,3-Dihydro-6,7-dimethoxy-3-[3-(3,4-dimethoxyphenethylamino)propyl]-4H-1,3-benzoxazin-4-one hydrochloride]
- solubility [1]: > 100 mg/mL

Structure (SMILES): COc1ccc(CCN(C)CCCN2COc3ccc(C)cc3C2=O)cc1OC.Cl [Compound F, 2,3-Dihydro-3-{3-[(methyl)(3,4-dimethoxyphenethyl)amino]propyl}-6-methyl-4H-1,3-benzoxazin-4-one hydrochloride]
- solubility [1]: ~100 mg/mL

Structure (SMILES): COc1ccc(CCNCCN2COc3cc(OC)c(OC)cc3C2=O)cc1OC.Cl [Compound R, 2,3-Dihydro-6,7-dimethoxy-3-[2-(3,4-dimethoxyphenethylamino)ethyl]-4H-1,3-benzoxazin-4-one hydrochloride]
- solubility [1]: 120 mg/mL

- solubility [1]: 90 mg/mL
Structure (SMILES): COc1ccc(CCN(C)CCCN2COc3cc(C)ccc3C2=O)cc1OC.Cl [Compound G, 2,3-Dihydro-3-{3-[(methyl)(3,4-dimethoxyphenethyl)amino]propyl}-7-methyl-4H-1,3-benzoxazin-4-one hydrochloride]
- inhibition at 1 µg/mL [2]: 4%
- % ABP (mean arterial blood pressure) [3]: -10%
- % HR (heart rate) [3]: -18%
- % modification of the ECG intervals: PQ (atrioventricular conduction time) [3]: +10%
- % modification of the ECG intervals: QRS (intraventricular conduction time) [3]: +5%
- % modification of the ECG intervals: QTS [3]: +12%
- % modification of the ECG intervals: TP (electrocardiac diastole) [3]: +32%
- inhibition at 1 µg/mL [4]: 35%
- % fall in heart rate after 1 min [5]: -39%
- % fall in heart rate after 10 min [5]: -16%
- % fall in arrhythmias [5]: -1%

- solubility [1]: 120 mg/mL
Structure (SMILES): COc1ccc(CCN(C)CCCN2COc3cc(Cl)ccc3C2=O)cc1OC.Cl [Compound J, 7-Chloro-2,3-dihydro-3-{3-[(methyl)(3,4-dimethoxyphenethyl)amino]propyl}-4H-1,3-benzoxazin-4-one hydrochloride]
- inhibition at 1 µg/mL [2]: 11%
- % ABP (mean arterial blood pressure) [3]: -13%
- % HR (heart rate) [3]: -16%
- % modification of the ECG intervals: PQ (atrioventricular conduction time) [3]: +9%
- % modification of the ECG intervals: QRS (intraventricular conduction time) [3]: +12%
- % modification of the ECG intervals: QTS [3]: +12%
- % modification of the ECG intervals: TP (electrocardiac diastole) [3]: +29%
- inhibition at 1 µg/mL [4]: 29%
- % fall in heart rate after 1 min [5]: -32%
- % fall in heart rate after 10 min [5]: -12%
- % fall in arrhythmias [5]: -37%

Structure (SMILES): COc1cc2c(cc1OC)C(=O)N(CCCN(C)CCc1ccccc1)CO2.Cl [Compound O, 2,3-Dihydro-6,7-dimethoxy-3-{3-[(methyl)(phenethyl)amino]propyl}-4H-1,3-benzoxazin-4-one hydrochloride]
- solubility [1]: > 100 mg/mL

Structure (SMILES): COc1ccc(CCN(C)CCCN2COc3c(C)cccc3C2=O)cc1OC.Cl [Compound H, 2,3-Dihydro-3-{3-[(methyl)(3,4-dimethoxyphenethyl)amino]propyl}-8-methyl-4H-1,3-benzoxazin-4-one hydrochloride]
- solubility [1]: 80 mg/mL

Structure (SMILES): NNc1nncc2ccccc12 [hydralazine, reference compound]
- heart rate effect of hydralazine [6]: causes tachycardia

Structure (SMILES): COc1ccc(CCN(C)CCCN2COc3c(OC)cccc3C2=O)cc1OC.Cl [Compound C, 2,3-Dihydro-3-{3-[(methyl)(3,4-dimethoxyphenethyl)amino]propyl}-8-methoxy-4H-1,3-benzoxazin-4-one hydrochloride]
- solubility [1]: ~100 mg/mL

Structure (SMILES): COc1ccc2c(c1)C(=O)N(CCCN(C)CCc1ccc(OC)c(OC)c1)CO2.Cl [Compound D, 2,3-Dihydro-3-{3-[(methyl)(3,4-dimethoxyphenethyl)amino]propyl}-6-methoxy-4H-1,3-benzoxazin-4-one hydrochloride]
- solubility [1]: > 100 mg/mL

- solubility [1]: 60 mg/mL
Structure (SMILES): COc1ccc(CCN(CCCN2COc3cc(OC)c(OC)cc3C2=O)Cc2ccccc2)cc1OC [Example 17, 2,3-Dihydro-6,7-dimethoxy-3-{3-[(benzyl)(3,4-dimethoxyphenethyl)amino]propyl}-4H-1,3-benzoxazin-4-one hydrochloride monohydrate]

Structure (SMILES): COc1ccc(CCN(C)CCCN2COc3ccc(Br)cc3C2=O)cc1OC.Cl [Compound K, 6-Bromo-2,3-dihydro-3-{3-[(methyl)(3,4-dimethoxyphenethyl)amino]propyl}-4H-1,3-benzoxazin-4-one hydrochloride]
- solubility [1]: 90 mg/mL

- solubility [1]: 100 mg/mL
Structure (SMILES): CCCCCCCC1Oc2cc(OC)c(OC)cc2C(=O)N1CCCN(C)CCc1ccc(OC)c(OC)c1 (centres unmarked) [Compound N, hydrochloride]
- % ABP (mean arterial blood pressure) [3]: -9%
- % HR (heart rate) [3]: -12%
- % modification of the ECG intervals: PQ (atrioventricular conduction time) [3]: +7%
- % modification of the ECG intervals: QRS (intraventricular conduction time) [3]: +12%
- % modification of the ECG intervals: QTS [3]: +10%
- % modification of the ECG intervals: TP (electrocardiac diastole) [3]: +21%
- % fall in heart rate after 1 min [5]: -4%
- % fall in heart rate after 10 min [5]: -6%
- % fall in arrhythmias [5]: -72%

Structure (SMILES): COc1ccc2c(c1)OCN(CCCN(C)CCc1ccc(OC)c(OC)c1)C2=O.Cl [Compound E, 2,3-Dihydro-3-{3-[(methyl)(3,4-dimethoxyphenethyl)amino]propyl}-7-methoxy-4H-1,3-benzoxazin-4-one hydrochloride]
- solubility [1]: 100 mg/mL

Structure (SMILES): COc1ccc(CCN(C)CCCN2C(=O)c3cccc(OC)c3OC2C)cc1OC.Cl (centres unmarked) [Compound L, 2,3-Dihydro-3-{3-[(methyl)(3,4-dimethoxyphenethyl)amino]propyl}-8-methoxy-2-methyl-4H-1,3-benzoxazin-4-one hydrochloride]
- solubility [1]: 100 mg/mL
